{"source": "patent US5945412A", "about": "“Methods and compositions for preventing and treating bone loss” (Merck & Co., Inc., priority 1997, dated 1999)", "origin": "cited, not measured here", "test_system": "human type 2 enzyme (5α-reductase)", "conditions": "background statement"}
{"smiles": "CC(C)(C)NC(=O)[C@H]1CC[C@H]2[C@@H]3CC[C@H]4NC(=O)C=C[C@]4(C)[C@H]3CC[C@]12C", "note": "[Finasteride, 17β-(N-tert-butylcarbamoyl)-3-oxo-4-aza-5α-androst-1-en-3-one]", "values": [{"measurement": "inhibition of the human type 2 enzyme (in words)", "value": "potent inhibitor"}]}
